For assay [1], the system named is RyR channels of cardiac SR vesicles. Nature of the assay: Ca2+ release from cardiac SR vesicles. The conditions noted are these: for Ca2+-activated Ca2+ release / caffeine-activated Ca2+ release: 20 μM Ca2+ or 2 mM caffeine plus peptide; for initial rate of Ca2+ release, peptide alone: 30 μM and 50 μM peptide, no additional activating factors; for rate of Ca2+ release in the absence of activating Ca2+ or caffeine: high concentrations of >30 μM peptide. The class given is biochemical, sheep. Here is the method: Extravesicular [Ca^2+] was monitored at 710 nm using either a Cary 50 or Cary 100 spectrophotometer. […] Vesicles were loaded with Ca^2+ by 4 additions of 3 μl aliquots of 5 mM CaCl2, to a final concentration of 7.5 μM Ca^2+. Thapsigargin (200 nM) was then added to block the SR Ca^2+ ATPase. Finally the peptides were added either alone, or with 20 μM Ca^2+ or 2 mM caffeine. The rate of Ca^2+ release in the presence of thapsigargin was measured just before addition of the activating agents and initial rates of Ca^2+ release were measured immediately after addition of the activating agents. The specific blocker of RyR activity, […] ruthenium red, was then added to confirm that Ca^2+ release was through RyR channels. The Ca^+ ionophore A23187 (3 μg/ml) was added at the end of the experiment to determine the amount of Ca^2+ remaining in the SR vesicles. When Ca^2+ release was complete, the Ca^2+ transient following addition of the ionophore, was indicative of the fraction of vesicles containing Ca^2+ that could not be released through RyR channel (presumably vesicles from longitudinal SR that lack RyR channels). […] Experiments were repeated on vesicles isolated from 3 different sheep heart preparations.

Assay [2] deals with cardiac RyR2 channel. The experiment in a line: Single channel activity of cardiac RyR2 channels in lipid bilayers. The class given is biochemical, sheep. Conditions: for effect on cardiac RyR2 channel activity: cis 10^−7M Ca2+. Here is the method:
SR vesicles were isolated from sheep heart as described by Layer et al. (1995, J. Membr. Biol. 147:7-22).
Experiments were carried out at 20° C. to 25° C., essentially according to Ahern et al. (1994, FEBS Lett. 352:369-374) and Layer et al. (1995, J. Membr. Biol. 147:7-22). Bilayers were formed from phosphatidylethanolamine, phosphatidylserine and phosphatidylcholine (5:3:2 w/w/w) (Avanti Polar Lipids, Alabaster, Ala.) across an aperture with a diameter of […] in the wall of a 1.0 ml Delrin cup (Cadillac Plastics, Australia). Terminal cisternae (TC) vesicles (final concentration, 10 μg/ml) and drugs were added to the cytoplasmic (i.e. cis) chamber. The bilayer potential was controlled, and single channel activity recorded, using an Axopatch 200A amplifier (Axon Instruments, Foster City, Calif.). For experimental purposes, the cis chamber was held at ground and the voltage of the lumen (i.e. trans) chamber controlled. Bilayer potential is expressed in the conventional way as Vcis−Vtrans, (i.e. Vcytoplasm−Vlumen).
Bilayers were formed as described above and vesicles were incorporated into the bilayer using a cis solution containing 230 mM Cs methanesulphonate (MS), 20 mM CsCl, 1 mM CaCl2 and 10 mM N-tris[hydroxymethyl]methyl-2-aminoethanesulfonic acid (TES, pH 7.4 with CsOH), and a trans solution containing 30 mM Cs MS, 20 mM CsCl, 1 mM CaCl2 and 10 mM TES (pH7.4).
To prevent incorporation of multiple channels into the bilayer, the cis solution was replaced by perfusion of the cis chamber when channel activity was observed. The cis perfusion solution was identical to the initial cis solution, except that the [Ca^2+] was 3×10^−7M, buffered using 1 mM BAPTA. CsMS (200 mM) was added to the trans chamber following channel incorporation to produce symmetrical solutions.
Bilayer potential was changed every 30 s, over 2 min following each addition of peptide to the cis chamber. Control activity was recorded for 2 min after addition of 200 mM CsMS to the trans chamber. Activity was then recorded for 2 min after cis addition of each aliquot of peptide (six different peptide concentrations were examined in each channel). Peptides were perfused out of the cis chamber, and the recovery recorded. Channels were finally exposed to 30 μM ruthenium red.
Currents were filtered at 1 kHz (8-pole low pass Bessel, −3 dB) and digitized at 5 kHz. Analysis of single channel records (using Channel 2, developed by P W Gage and M Smith) yielded channel open probability (Po), frequency of events (Fo), open times, closed times and mean open or closed times (To or Tc) as well as mean current (I′). The event discriminator was set above the baseline noise at ˜20% of the maximum current, rather than the usual 50%, and so openings to both sub conductance and maximum conductance levels were included in the analysis. Channel activity was analyzed over two 30 s periods of continuous activity at +40 mV and two 30 s periods of continuous activity at −40 mV.
The Ca^2+ concentration in the cis solution was either buffered at 100 nM or was adjusted to 100 μM by adding an CaCl2 to the cis solution in the absence of BAPTA.

The target in assay [3] is cardiac SR (Homo sapiens, UniProt Q92736). The conditions noted are these: cited from earlier work.
The target of assay [4] is cardiac RyR2 channels (Homo sapiens, UniProt Q92736). Conditions: cited from earlier work.
The target in assay [5] is RyR2 (Homo sapiens, UniProt Q92736). The conditions noted are these: cited from earlier work.
The target of assay [6] is cardiac ryanodine receptor (RyR2) calcium channel from sheep heart SR vesicles (sheep, UniProt A0ACI6Q5I6 1-4956). The experiment in a line: cell-based or functional assay.

The values that follow come from patent US20050049198A1, “Method of modulating the activity of calcium channels in cardiac cells and reagents therefor” (priority 2001, published 2005).

Entries after “also recorded” stand apart in the source; their conditions may differ. Where no end group is shown, it is not given here. [ ]: non-standard residue; d: D form.

RyR2, sequence (Q92736 whole entry, species assumed): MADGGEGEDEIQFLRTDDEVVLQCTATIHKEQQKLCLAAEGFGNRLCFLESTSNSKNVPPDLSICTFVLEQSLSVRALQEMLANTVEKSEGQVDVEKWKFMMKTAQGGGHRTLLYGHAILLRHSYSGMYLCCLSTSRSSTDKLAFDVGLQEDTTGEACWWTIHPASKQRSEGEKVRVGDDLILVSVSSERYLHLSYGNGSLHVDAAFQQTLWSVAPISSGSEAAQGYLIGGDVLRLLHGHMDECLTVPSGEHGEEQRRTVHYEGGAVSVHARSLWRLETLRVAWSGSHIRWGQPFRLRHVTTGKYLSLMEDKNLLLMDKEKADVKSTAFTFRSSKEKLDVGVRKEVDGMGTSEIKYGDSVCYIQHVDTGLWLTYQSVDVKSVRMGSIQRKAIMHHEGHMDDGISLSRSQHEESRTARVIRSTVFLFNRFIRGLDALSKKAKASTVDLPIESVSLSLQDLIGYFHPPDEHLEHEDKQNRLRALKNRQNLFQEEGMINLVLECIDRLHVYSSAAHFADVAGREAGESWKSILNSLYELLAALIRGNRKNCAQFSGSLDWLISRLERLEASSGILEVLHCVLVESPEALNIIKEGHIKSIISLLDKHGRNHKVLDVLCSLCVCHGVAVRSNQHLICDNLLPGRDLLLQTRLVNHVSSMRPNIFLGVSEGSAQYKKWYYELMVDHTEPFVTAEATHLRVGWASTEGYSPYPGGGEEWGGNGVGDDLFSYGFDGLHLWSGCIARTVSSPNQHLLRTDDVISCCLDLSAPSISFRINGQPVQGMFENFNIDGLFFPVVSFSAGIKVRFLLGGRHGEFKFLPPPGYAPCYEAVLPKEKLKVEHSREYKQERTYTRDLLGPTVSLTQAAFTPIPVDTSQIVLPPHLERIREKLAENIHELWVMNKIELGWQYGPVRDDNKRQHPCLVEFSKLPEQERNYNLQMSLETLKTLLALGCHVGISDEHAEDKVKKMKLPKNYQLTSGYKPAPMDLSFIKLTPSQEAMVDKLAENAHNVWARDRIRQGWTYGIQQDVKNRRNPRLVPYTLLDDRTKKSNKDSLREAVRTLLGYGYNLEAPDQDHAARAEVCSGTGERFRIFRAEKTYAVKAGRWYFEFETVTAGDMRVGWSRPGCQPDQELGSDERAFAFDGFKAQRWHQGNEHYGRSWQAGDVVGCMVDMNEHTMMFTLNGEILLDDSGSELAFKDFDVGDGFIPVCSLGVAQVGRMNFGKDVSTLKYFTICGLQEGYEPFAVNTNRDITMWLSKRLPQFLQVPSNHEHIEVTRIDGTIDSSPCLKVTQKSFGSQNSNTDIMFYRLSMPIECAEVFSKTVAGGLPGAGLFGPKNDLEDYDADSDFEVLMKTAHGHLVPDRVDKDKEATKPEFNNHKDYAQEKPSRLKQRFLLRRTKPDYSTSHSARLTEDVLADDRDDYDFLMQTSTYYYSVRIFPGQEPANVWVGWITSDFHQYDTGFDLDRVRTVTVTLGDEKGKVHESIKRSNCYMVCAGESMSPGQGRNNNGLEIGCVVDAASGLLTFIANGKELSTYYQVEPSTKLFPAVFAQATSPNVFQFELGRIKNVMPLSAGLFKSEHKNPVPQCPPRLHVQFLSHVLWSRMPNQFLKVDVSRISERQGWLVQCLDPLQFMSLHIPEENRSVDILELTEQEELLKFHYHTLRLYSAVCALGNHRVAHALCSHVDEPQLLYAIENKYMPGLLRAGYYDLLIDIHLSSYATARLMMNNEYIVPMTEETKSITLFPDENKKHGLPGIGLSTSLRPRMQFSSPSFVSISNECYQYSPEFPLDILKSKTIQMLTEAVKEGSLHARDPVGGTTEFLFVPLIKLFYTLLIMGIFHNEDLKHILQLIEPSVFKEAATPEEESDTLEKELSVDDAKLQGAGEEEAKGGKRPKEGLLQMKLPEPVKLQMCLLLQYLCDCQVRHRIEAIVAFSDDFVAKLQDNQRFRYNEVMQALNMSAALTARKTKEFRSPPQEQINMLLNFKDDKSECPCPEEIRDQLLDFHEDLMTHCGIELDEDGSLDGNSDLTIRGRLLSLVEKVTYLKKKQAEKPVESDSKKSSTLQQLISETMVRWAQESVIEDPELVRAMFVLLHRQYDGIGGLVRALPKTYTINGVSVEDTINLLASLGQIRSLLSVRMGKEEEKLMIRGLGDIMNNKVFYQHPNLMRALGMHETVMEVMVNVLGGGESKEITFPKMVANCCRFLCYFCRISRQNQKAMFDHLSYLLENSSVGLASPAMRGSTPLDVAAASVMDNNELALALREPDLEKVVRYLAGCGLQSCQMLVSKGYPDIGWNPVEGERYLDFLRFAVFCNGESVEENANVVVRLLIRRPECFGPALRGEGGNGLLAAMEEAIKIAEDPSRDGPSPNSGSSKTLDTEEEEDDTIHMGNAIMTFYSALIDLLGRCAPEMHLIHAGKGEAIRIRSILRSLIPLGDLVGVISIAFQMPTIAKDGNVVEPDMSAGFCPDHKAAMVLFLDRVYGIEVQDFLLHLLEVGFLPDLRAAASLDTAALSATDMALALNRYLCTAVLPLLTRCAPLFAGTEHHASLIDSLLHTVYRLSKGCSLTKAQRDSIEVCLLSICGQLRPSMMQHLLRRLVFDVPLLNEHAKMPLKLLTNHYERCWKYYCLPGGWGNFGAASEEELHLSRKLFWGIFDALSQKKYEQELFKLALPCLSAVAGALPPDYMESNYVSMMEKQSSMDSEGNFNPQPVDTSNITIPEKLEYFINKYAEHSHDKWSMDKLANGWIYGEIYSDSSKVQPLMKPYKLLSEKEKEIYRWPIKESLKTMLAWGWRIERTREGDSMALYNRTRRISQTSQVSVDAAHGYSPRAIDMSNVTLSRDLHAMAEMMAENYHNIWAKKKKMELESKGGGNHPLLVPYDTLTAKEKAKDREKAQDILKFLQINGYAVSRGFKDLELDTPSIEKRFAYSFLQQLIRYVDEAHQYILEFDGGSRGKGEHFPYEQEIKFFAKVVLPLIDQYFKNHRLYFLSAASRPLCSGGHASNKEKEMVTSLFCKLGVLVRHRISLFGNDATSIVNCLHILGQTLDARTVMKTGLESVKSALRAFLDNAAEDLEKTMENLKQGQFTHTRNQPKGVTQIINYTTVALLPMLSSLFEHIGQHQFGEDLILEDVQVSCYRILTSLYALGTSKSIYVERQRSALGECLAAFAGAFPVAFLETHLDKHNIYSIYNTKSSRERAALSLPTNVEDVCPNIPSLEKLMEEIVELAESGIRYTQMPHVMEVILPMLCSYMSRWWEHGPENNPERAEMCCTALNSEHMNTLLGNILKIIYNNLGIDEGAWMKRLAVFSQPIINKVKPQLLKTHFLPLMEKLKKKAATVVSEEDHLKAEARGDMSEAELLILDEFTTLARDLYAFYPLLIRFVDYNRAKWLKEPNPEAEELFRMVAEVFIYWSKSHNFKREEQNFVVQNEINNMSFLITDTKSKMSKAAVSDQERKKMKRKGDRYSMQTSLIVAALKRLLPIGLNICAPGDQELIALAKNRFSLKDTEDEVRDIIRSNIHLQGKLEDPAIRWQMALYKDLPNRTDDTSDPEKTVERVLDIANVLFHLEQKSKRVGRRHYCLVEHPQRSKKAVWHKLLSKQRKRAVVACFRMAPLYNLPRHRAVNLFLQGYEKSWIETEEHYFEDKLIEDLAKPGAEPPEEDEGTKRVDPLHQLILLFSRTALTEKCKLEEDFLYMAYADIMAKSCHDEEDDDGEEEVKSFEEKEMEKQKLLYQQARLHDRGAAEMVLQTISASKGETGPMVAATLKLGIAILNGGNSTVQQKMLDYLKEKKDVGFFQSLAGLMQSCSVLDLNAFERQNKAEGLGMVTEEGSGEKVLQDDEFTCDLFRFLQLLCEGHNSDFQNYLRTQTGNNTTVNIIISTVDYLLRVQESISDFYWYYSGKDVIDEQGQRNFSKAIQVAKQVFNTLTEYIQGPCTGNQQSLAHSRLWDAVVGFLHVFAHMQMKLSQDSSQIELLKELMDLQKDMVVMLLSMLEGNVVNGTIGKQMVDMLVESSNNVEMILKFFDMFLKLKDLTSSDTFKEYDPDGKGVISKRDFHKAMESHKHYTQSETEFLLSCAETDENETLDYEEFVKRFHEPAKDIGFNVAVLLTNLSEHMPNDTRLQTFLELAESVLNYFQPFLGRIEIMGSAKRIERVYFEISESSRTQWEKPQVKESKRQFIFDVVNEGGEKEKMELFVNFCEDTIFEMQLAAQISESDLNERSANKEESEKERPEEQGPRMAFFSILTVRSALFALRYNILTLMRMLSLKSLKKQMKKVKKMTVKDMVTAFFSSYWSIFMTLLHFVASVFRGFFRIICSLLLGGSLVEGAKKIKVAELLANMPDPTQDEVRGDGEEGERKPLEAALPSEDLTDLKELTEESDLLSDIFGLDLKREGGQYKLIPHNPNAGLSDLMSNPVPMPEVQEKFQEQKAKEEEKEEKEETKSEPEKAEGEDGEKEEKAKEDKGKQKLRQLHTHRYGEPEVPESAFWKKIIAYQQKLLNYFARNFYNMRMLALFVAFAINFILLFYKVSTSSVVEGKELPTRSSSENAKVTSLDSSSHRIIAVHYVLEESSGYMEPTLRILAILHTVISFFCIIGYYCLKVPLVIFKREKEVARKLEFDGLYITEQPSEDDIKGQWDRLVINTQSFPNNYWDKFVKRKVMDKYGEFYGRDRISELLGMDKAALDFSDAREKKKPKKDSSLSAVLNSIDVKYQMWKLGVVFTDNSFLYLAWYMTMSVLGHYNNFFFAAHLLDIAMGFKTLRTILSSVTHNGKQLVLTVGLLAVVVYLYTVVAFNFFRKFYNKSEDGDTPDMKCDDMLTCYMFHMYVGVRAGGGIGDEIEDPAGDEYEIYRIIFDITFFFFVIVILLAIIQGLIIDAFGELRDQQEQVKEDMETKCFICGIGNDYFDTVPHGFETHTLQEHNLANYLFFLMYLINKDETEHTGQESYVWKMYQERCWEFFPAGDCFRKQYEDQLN
cardiac RyR2 channels, sequence (Q92736 whole entry): as the sequence (Q92736 whole entry, species assumed) above
cardiac SR, sequence (Q92736 whole entry): as the sequence (Q92736 whole entry, species assumed) above

Regarding `Cn1c(=O)c2c(ncn2C)n(C)c1=O` [caffeine, reference compound], the “initial rate of Ca2+ release” value in assay [1] (2 mM caffeine, no peptide) is recorded as 10 μmoles of Ca^2+ per mg of SR protein per min.

On to `N.N.N.N.N.N.N.N.N.N.N.N.N.N.[Cl-].[Cl-].[Cl-].[Cl-].[Cl-].[Cl-].[O-2].[O-2].[Ru+3].[Ru+3].[Ru+4]` [ruthenium red, reference compound], for which the “effect on RyR channel” value in assay [2] (30 μM, end of experiment) is on record as “block the channel”. For the same molecule, the “effect on Ca2+ release” value in assay [1] (added after activating agents) is “terminated”.

As for “GLPDKTEEEKSVMAKKLEQK [peptide NB, non-specific peptide; the N-terminal portion of the B segment of the II-III loop, reference compound]”, in assay [2] (1 μM or 10 μM cis peptide, +40 mV or −40 mV), the channel activity entry is given as “no modified channel activity”.

Turning to “TRKSRLARGQKAKAKSEMRE [Peptide A1S, reference compound]”, in assay [2] (1 μM or 10 μM cis peptide), the “bilayers in which channel activity was reduced” value was 2 out of 2 and the “cardiac RyR2 channel activity” value is “reduced cardiac RyR2 channel activity”.

Regarding “TSAQKAKAEERKRRKMARDGL (TSAQKAKAEERKRRKMA[dR]GL) [SEQ ID NO: 10]”, in assay [1], the “Ca2+-activated Ca2+ release / caffeine-activated Ca2+ release” value was “also enhanced”; the “initial rate of Ca2+ release, peptide alone” value (“initial rate … peptide alone” for short) was “small increase”; the “rate of Ca2+ release in the absence of activating Ca2+ or caffeine” value is recorded as “marginally enhanced”.

As for TSAQKAKAEERKRRKMARGL [SEQ ID NO: 8], the “initial rate … peptide alone” value in assay [1] is on record as “small increase”.

In the case of “TSAQKAKAEERKRRKMSRDGL (TSAQKAKAEERKRRKMS[dR]GL) [SEQ ID NO: 9]”, the “channel activity (relative mean current)” value in assay [2] (100 nM cis Ca2+) is on record as “clearly enhanced”. The channel activity result in assay [2] (100 nM cis Ca2+, 10 nM peptide) is recorded as “significant increase in activity”. In addition, in assay [2] (100 nM cis Ca2+, 1 and 10 μM peptide, +40 mV), the “relative mean current at higher peptide concentrations” value is listed as “fall”. In addition, the “peptide concentration at which depression was seen” value in assay [2] (100 nM cis Ca2+, +40 mV) is more than 100 nM. Besides, the “increase in relative mean current” value in assay [2] (100 nM cis Ca2+, both positive and negative potentials) is 10-20 fold. In addition, in assay [2] (100 μM cis Ca2+), the “channel activity (relative mean current)” value is listed as “failed to activate channels; also recorded: clearly depressed”, the “peptide concentration of maximum effect (depression)” value is 100 nM and the “voltage dependence of reduction in channel activity” value is reported as “greater at +40 mV than −40 mV; also recorded: significantly greater at +40 mV”. Also, the frequency of events entry in assay [2] (+40 mV and −40 mV) was “corresponding increase”. Moreover, the “effect at high peptide concentrations” value in assay [2] (+40 mV, voltage- and Ca2+-dependent) is listed as “blocked the channel pore”. Also, in assay [2] (low concentrations), the “peptide concentrations enhancing cardiac RyR activity in lipid bilayer” value is 1 to 10 nM. For the same molecule, in assay [1], the “Ca2+-activated Ca2+ release / caffeine-activated Ca2+ release” value was “also enhanced”; the “initial rate … peptide alone” value is listed as “small increase”; the “rate of Ca2+ release in the absence of activating Ca2+ or caffeine” value is recorded as “marginally enhanced”.

In the case of “TSAQKAKAEERKRRKMSRGL [SEQ ID NO: 2, 20-mer peptide (Thr671 to Leu690) of the II-III cytoplasmic loop of human skeletal muscle DHPR]”, the “bilayer samples with similar activation and inhibition” value in assay [2] was 8 out of 8. Further, the “lowest peptide concentration at which activation of cardiac RyR2 was observed” value in assay [2] was 1 nM. For the same molecule, the “peptide concentration above which channel opening began to decline” value in assay [2] (+40 mV) is listed as “above 100 nM”. In assay [2] (+40 mV and −40 mV, after peptide addition to cis chamber), the frequency of opening result is reported as “higher frequency of opening”. The normalized mean current result in assay [2] (+40 mV, 10 nM peptide) was “doubled”. Besides, in assay [2] (+40 mV, 65 nM peptide), the channel activity entry is “increased; also recorded: mostly in the open configuration”. Also, the channel openings result in assay [2] (+40 mV, 10 μM peptide) was “only a few brief channel openings”; in assay [2] (−40 mV, within 10 s of adding 65 nM peptide), “channel openings increased”. In addition, in assay [2] (+40 mV, 32.5 μM peptide), the channel configuration result was “mostly in the closed configuration”. Also, in assay [2] (+40 mV, between about 10 μM and 50 μM peptide), the “normalized mean current at higher peptide concentrations” value is reported as “fell dramatically”. In addition, the “effect on cardiac RyR2 channel activity” value in assay [2] (+40 mV) is “increases and then decreases the activity”; in assay [2] (+40 mV, listed as 20-mer peptide) it was “strong inhibition”; in assay [2] (−40 mV), “increases the activity”; in assay [2] (−40 mV, listed as 20-mer peptide), “significant activation”. In addition, the “duration of channel openings” value in assay [2] (−40 mV, 10^−7M cis Ca, versus absence of peptide) is given as “prolonged channel openings”. Besides, in assay [2] (−40 mV, particularly at 65 nM peptide), the “channel open probability (Po)” value was “high open probability”. The RyR2 channel activity entry in assay [2] (−40 mV, peptide increased to 6.5 μM) is listed as “fell slightly”. The “initial rate … peptide alone” value in assay [1] is listed as “small increase”. Further, the “induction of Ca2+ release from cardiac SR” value in assay [3] was “not to induce”. In addition, in assay [4], the “enhancement of [3H]ryanodine binding to cardiac RyR2 channels” value is “not to induce Ca^2+ release from cardiac SR, or to enhance [^3H]ryanodine binding”. In assay [5], the “binding to RyR2” value is “binds”.

Consider TSAQKAKAEERKRRKMSRGL [20-mer peptide of the II-III cytoplasmic loop of skeletal DHPR alpha-1 subunit (Thr671 to Leu690)], for which, in assay [6], the “mean current (I'p/I'c) at 10 nM peptide, -40 mV or +40 mV” value is approximately 2 fold and the “mean current at -40 mV (increase in 50 µM peptide)” value turned out to be 4 fold.

Turning to TSAQKAKAEERKRRKMS[dR]GL [SEQ ID NO: 9 peptide (20-mer of SEQ ID NO: 2 with Arg688 replaced by the D isomer of arginine)], in assay [6], the “mean closed time at +40 mV (decrease)” value worked out at 80 fold, the “mean closed time at -40 mV (decrease)” value is 170 fold, the “mean open time at both potentials (increase)” value worked out at 8 fold and the “open probability at +40 mV (increase)” value was approximately 10 fold. Moreover, the “open probability at -40 mV (increase)” value in assay [6] is approximately 50 fold.
